Test results reported in patent US5700769A, “Enhancement of enzyme reactions” (Novo Nordisk A/S, priority 1992, dated 1997).
Where two headings read alike, the source gives them in different places.

Legend:
[1] = molecular target: T1, Coprinus cinereus peroxidase (CiP) (Coprinopsis cinerea, UniProt P28314); experiment: Initial bleaching of Direct Blue 1 by CiP with enhancer (Example 1); assay type: biochemical; details: 10 μM enhancer, 20 μM H2O2, 30° C., 610 nm
T1 construct: made in house
T1 sequence (P28314 21-363): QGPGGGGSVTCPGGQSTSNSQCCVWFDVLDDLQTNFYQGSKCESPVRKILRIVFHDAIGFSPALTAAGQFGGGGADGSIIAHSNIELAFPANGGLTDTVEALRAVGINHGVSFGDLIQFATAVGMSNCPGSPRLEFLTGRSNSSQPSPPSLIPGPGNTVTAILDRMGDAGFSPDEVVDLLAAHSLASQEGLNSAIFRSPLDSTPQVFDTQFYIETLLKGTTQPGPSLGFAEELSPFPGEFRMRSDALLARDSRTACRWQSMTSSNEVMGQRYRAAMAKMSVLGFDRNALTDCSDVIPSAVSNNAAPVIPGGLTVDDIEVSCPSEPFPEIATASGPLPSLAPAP
Protocol: The initial bleaching of Direct Blue 1 (DB1) by CiP using a selection of enhancers according to the invention was compared to the half-life of the oxidized enhancer (electron acceptor) measured under standard conditions.
Conditions for bleaching:
200 μl 50 mM Britton-Robinson* buffer
pH 8.5 and 10.5, respectively
After 5 seconds the bleaching was followed for at least 1 minute, and the initial bleaching rates (reduction in milli-absorbance units per minute, -ΔmAbs/min, determined from the initial slope of the absorbance curve) were determined.

CiP = molecular target: T2, CiP (Coprinopsis cinerea, UniProt P28314); experiment: Apparent kinetic constants for oxidation of enhancer by CiP (Example 9); assay type: biochemical, Coprinus cinereus; details: pH 8.5, 30° C.; for Kcat (app.): turnover number calculated as Vmax/[CiP]o
T2 construct: made in house
T2 sequence (P28314 21-363): T1 sequence (P28314 21-363)
Protocol: (§1) The apparent kinetic constants for the oxidation of some of the enhancers of the invention, 10-ethyl-4-phenothiazinecarboxylic acid (EPC) and 10-phenothiazinepropionic acid (PTP), were determined using CiP (4nM for PTP and 3.1 nM for EPC), borate buffer (10 mM) pH 8.5, H2 O2 (50 μM) and varied concentrations of enhancer, 30° C. Formation of oxidized enhancer was monitored at 514 nm.
(§2) When Kcat (app.) is defined as the turnover number calculated as
(§3) Vmax /[CiP]o, where [CiP]o is the initial concentration of […]

[2] = Decay of oxidized vanillin and 7-hydroxycoumarin from cyclic voltammograms (Example 7); assay type: physicochemical; details: enhancer 2 mM; comparison of experimental with simulated voltammograms
Protocol: The half-life of vanillin and 7-hydroxycoumarin was determined from cyclic voltammograms of the enhancers. The cyclic voltammograms were obtained in a three-electrode system consisting of
(§4) Working electrode Platinum disc
(§5) Counter electrode Platinum wire
(§6) Reference electrode Calomel
The concentration of the enhancers was 2 mM.
The order of the decay reaction of the oxidized enhancers was determined from the dependence of the peak position of the oxidizing peak (Epo) on the scan rate (.nu.). For both enhancers (δEpo /δlog.nu.)=0.019 V in the scan rate range 0.1-1.0 V/s showing that the decay reaction is 2nd order.
The rate constant of the decay reaction of the oxidized enhancers was determined from a comparison of the experimental cyclic voltammograms with simulated voltammograms. The parameters needed for the simulation are the reaction order of the decay reaction, the concentration of the enhancer, the scan rate […] the rate constant for the decay reaction as described in Analytical Chemistry, Vol. 60, p. 1159, 1988.

[3] = Half-life of oxidized enhancer from cyclic voltammogram (Example 1); assay type: physicochemical; details: pH 10.5, enhancer 8 mM
Protocol: The half-life of the oxidized enhancers were determined from a cyclic voltammogram of the enhancers present at a concentration of 8 mM. The cyclic voltammograms were obtained in a standard three-electrode system consisting of
as §4, §5, §6
The half-life (t1/2) of the oxidized enhancers was calculated from the scan rates (.nu.), peak positions and switching potential in a cyclic voltammogram in which the peak current of the reducing peak had half the value of the peak current of the oxidizing peak. [formula] ΔE is the difference of the peak position of the reducing peak and the switching potential.
The switching potential was fixed at a potential 0.2 V higher than the peak position of the oxidizing peak in a reversible voltammogram. A reversible voltammogram is obtained at scan rates at which the difference between the peak positions of the oxidizing and reducing peak approaches 0.059 V.

[4] = Half-life of benzidine derivatives by cyclic voltametri (Example 8); assay type: physicochemical; details: CV in DMF/H2O buffer (1/9), 2 mM, two electron transfer
Protocol: The half-life of the different benzidine derivatives was measured by cyclic voltametri (CV) in DMF/H2 O buffer (1/9) at pH 8.5 and 10.5 as described in. The concentration of the benzidines were 2 mM, and the half-life (t1/2) of the compounds is referring to a two electron transfer.

[5] = ESR
Protocol: The stability of the ABTS radical formed by oxidation of ABTS with a recombinantly produced Coprinus cinereus peroxidase (rCiP), obtained according to Example 1, was studied by electron spin resonance technique (ESR). The ESR signal was calculated after 20 scans, where the area under curve corresponds to the concentration of the radical. The signal was integrated from 3260 Gaus to 3300 Gaus.
The stability of the radical was determined in 0.1M Britton & Robinson buffer at different pH values. A concentration of 2.27 mM H2 O2 and an enzyme concentration 34 PODU/ml was applied.
The half-lives in Table 3 measured at different concentrations have for comparison been calculated to a concentration of 250 μM assuming a 2nd order decay.

[6] = substrate: CCN1c2ccccc2Sc2c(C(=O)O)cccc21; experiment: Apparent kinetic constants for oxidation of enhancer by CiP (Example 9); assay type: biochemical, Coprinus cinereus; details: other: CiP 4 nM for PTP, 3.1 nM for EPC, borate buffer 10 mM pH 8.5, 50 μM H2O2, 30° C., 514 nm
Protocol: as §1, §2, §3

[7] = substrate: O=C(O)CCN1c2ccccc2Sc2ccccc21; experiment: as above; assay type: biochemical, Coprinus cinereus; details: other: CiP 4 nM for PTP, 3.1 nM for EPC, borate buffer 10 mM pH 8.5, 50 μM H2O2, 30° C., 514 nm
Protocol: as §1, §2, §3

O=C(O)CCN1c2ccccc2Sc2ccccc21 [10-phenothiazine propionic acid, 10-phenothiazinepropionic acid]
bleaching (initial bleaching of Direct Blue 1) ([1]; pH 8.5, 2 nM CiP): 486 -ΔmAbs/min
bleaching (initial bleaching of Direct Blue 1) ([1]; pH 10.5, 1 nM CiP): 468 -ΔmAbs/min
1/kcat (app.) (CiP): ~ 1.5 ms
Kcat (app.) (CiP): 671 ± 124 s⁻¹

COc1cc(C=O)ccc1O [vanillin]
rate constant for the decay reaction of the oxidized enhancer [2]: ~10^8 M^-1 s^-1

CCN1c2ccccc2Sc2c(C(=O)O)cccc21 [10-ethyl-4-phenothiazine-carboxylic acid, 10-ethyl-4-phenothiazinecarboxylic acid]
bleaching (initial bleaching of Direct Blue 1) ([1]; pH 8.5, 2 nM CiP): 816 -ΔmAbs/min
bleaching (initial bleaching of Direct Blue 1) ([1]; pH 10.5, 1 nM CiP): 864 -ΔmAbs/min
t1/2 (half-life of the oxidized enhancer) [3]: 2.5 s
1/kcat (app.) (CiP): ~ 1 ms
Kcat (app.) (CiP): 997 ± 64 s⁻¹

O=c1ccc2ccc(O)cc2o1 [7-hydroxycoumarin]
rate constant for the decay reaction of the oxidized enhancer [2]: ~10^8 M^-1 s^-1

CC(=O)c1ccc2c(c1)N(C)c1ccccc1S2 [2-acetyl-10-methyl-phenothiazine]
bleaching (initial bleaching of Direct Blue 1) ([1]; pH 8.5, 2 nM CiP): 27 -ΔmAbs/min
bleaching (initial bleaching of Direct Blue 1) ([1]; pH 10.5, 1 nM CiP): 25 -ΔmAbs/min

COC(=O)CCN1c2ccccc2Sc2ccccc21 [methyl-10-phenothiazine-propionate]
bleaching (initial bleaching of Direct Blue 1) ([1]; pH 8.5, 2 nM CiP): 72 -ΔmAbs/min
bleaching (initial bleaching of Direct Blue 1) ([1]; pH 10.5, 1 nM CiP): 99 -ΔmAbs/min

CN1c2ccccc2Sc2ccccc21 [10-methyl-phenothiazine]
bleaching (initial bleaching of Direct Blue 1) ([1]; pH 8.5, 2 nM CiP): 240 -ΔmAbs/min
bleaching (initial bleaching of Direct Blue 1) ([1]; pH 10.5, 1 nM CiP): 480 -ΔmAbs/min

Cc1cc(-c2cc(C)c(N)c(C)c2)cc(C)c1N [3,3',5,5'-tetramethyl-benzidine, 3,3',5,5'-tetramethylbenzidine]
t1/2 (half-life of oxidized enhancer) ([4]; pH 8.5): 4.5 s
t1/2 (half-life of oxidized enhancer) ([4]; pH 10.5): 5 s

CCn1c(=NN=c2sc3cc(S(=O)(=O)O)ccc3n2CC)sc2cc(S(=O)(=O)O)ccc21 [ABTS, 2,2'-azino-bis (3-ethylbenzothiazoline-6-sulfonate)]
t1/2 of ABTS radical ([5]; pH 3, initial concentration 0.45 mM, 0.1M Britton & Robinson buffer): 83 h
t1/2 of ABTS radical ([5]; pH 4, initial concentration 0.45 mM): 66 h
t1/2 of ABTS radical ([5]; pH 6, initial concentration 0.45 mM): 6.75 h
t1/2 of ABTS radical ([5]; pH 7, initial concentration 0.24 mM): 1.4 h
t1/2 of ABTS radical ([5]; pH 8.7, initial concentration 0.24 mM): 0.67 h

B1: CiP (Coprinopsis cinerea) (protein)
chain: T1 sequence (P28314 21-363)
notes: made in house
Km [6]: 31 µM
Km [7]: 53 µM
